Results reported in the supplement of paper PMC8149375.
Each block holds one molecule with its values, some of them ahead of it.

Legend:
Details in all cases: treatment: drug alone; 5 days
[1] = test system: CAKI-1; experiment: minimum viability across doses, drug alone, relative to DMSO (fraction); higher = less growth inhibition
Experimental: (§1)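 Primary HTS: 8 RCC cell lines treated with 8 doses (up to 10 uM) of each library drug alone for 5 days; viability read by CellTiter-Glo and normalised to DMSO. GI50 was fitted with XLfit (4-parameter), AUC is the area under the dose-response curve, and minimum viability is the lowest fraction of DMSO viability across doses.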

[2] = test system: 769-P; experiment: as above
Experimental: as §1

[3] = test system: ACHN; experiment: as above
Experimental: as §1

[4] = test system: TK-10; experiment: as above
Experimental: as §1

[5] = test system: A498; experiment: as above
Experimental: as §1

[6] = test system: UO-31; experiment: as above
Experimental: as §1

[7] = test system: 786-O; experiment: as above
Experimental: as §1

[8] = test system: SN12C; experiment: as above
Experimental: as §1

[9] = test system: CAKI-1; experiment: AUC of dose-response viability curve, drug alone (arbitrary (AUC of normalised viability)); higher = less growth inhibition
Experimental: as §1

[10] = test system: 769-P; experiment: as above
Experimental: as §1

[11] = test system: ACHN; experiment: as above
Experimental: as §1

[12] = test system: TK-10; experiment: as above
Experimental: as §1

[13] = test system: A498; experiment: as above
Experimental: as §1

[14] = test system: UO-31; experiment: as above
Experimental: as §1

[15] = test system: 786-O; experiment: as above
Experimental: as §1

[16] = test system: SN12C; experiment: as above
Experimental: as §1

[17] = test system: CAKI-1; experiment: GI50, drug alone; higher = less potent
Experimental: as §1

[18] = test system: 769-P; experiment: GI50, drug alone; higher = less potent
Experimental: as §1

[19] = test system: ACHN; experiment: GI50, drug alone; higher = less potent
Experimental: as §1

[20] = test system: TK-10; experiment: GI50, drug alone; higher = less potent
Experimental: as §1

[21] = test system: A498; experiment: GI50, drug alone; higher = less potent
Experimental: as §1

[22] = test system: UO-31; experiment: GI50, drug alone; higher = less potent
Experimental: as §1

[23] = test system: 786-O; experiment: GI50, drug alone; higher = less potent
Experimental: as §1

[24] = test system: SN12C; experiment: GI50, drug alone; higher = less potent
Experimental: as §1

SMILES: COc1ccc2c(Oc3ccc(NC(=O)c4c(C)n(CC(C)(C)O)n(-c5ccccc5)c4=O)nc3)ccnc2c1 [AMG458]
- minimum viability across doses [1]: 0.449
- minimum viability across doses [2]: 0.971
- minimum viability across doses [3]: 0.262
- minimum viability across doses [4]: 0.66
- minimum viability across doses [5]: 0.859
- minimum viability across doses [6]: 0.597
- minimum viability across doses [7]: 0.25
- minimum viability across doses [8]: 0.71
- AUC of dose-response viability curve [9]: 3.32
- AUC of dose-response viability curve [10]: 3.55
- AUC of dose-response viability curve [11]: 3.03
- AUC of dose-response viability curve [12]: 3.29
- AUC of dose-response viability curve [13]: 3.66
- AUC of dose-response viability curve [14]: 3.98
- AUC of dose-response viability curve [15]: 2.82
- AUC of dose-response viability curve [16]: 3.13
- GI50, drug alone [17]: 8.65 µM
- GI50, drug alone [18]: > 10000 nM
- GI50, drug alone [19]: 4.79 µM
- GI50, drug alone [20]: > 10000 nM
- GI50, drug alone [21]: > 10 µM
- GI50, drug alone [22]: > 10 µM
- GI50, drug alone [23]: 4550 nM
- GI50, drug alone [24]: > 10 µM

SMILES: O=C1NC(=O)[C@@H](c2cn3c4c(cccc24)CCC3)[C@@H]1c1c[nH]c2ccccc12 [ARQ 197 (Tivantinib)]
- minimum viability across doses [1]: 0.201
- minimum viability across doses [2]: 0.0795
- minimum viability across doses [3]: 0.144
- minimum viability across doses [4]: 0.326
- minimum viability across doses [5]: 0.121
- minimum viability across doses [6]: 0.0233
- minimum viability across doses [7]: 0.00526
- minimum viability across doses [8]: 0.251
- AUC of dose-response viability curve [9]: 2.54
- AUC of dose-response viability curve [10]: 2.55
- AUC of dose-response viability curve [11]: 2.63
- AUC of dose-response viability curve [12]: 2.77
- AUC of dose-response viability curve [13]: 3
- AUC of dose-response viability curve [14]: 3.27
- AUC of dose-response viability curve [15]: 2.06
- AUC of dose-response viability curve [16]: 2.86
- GI50, drug alone [17]: 1.06 µM
- GI50, drug alone [18]: 1550 nM
- GI50, drug alone [19]: 1.54 µM
- GI50, drug alone [20]: 2880 nM
- GI50, drug alone [21]: 1.15 µM
- GI50, drug alone [22]: 1.31 µM
- GI50, drug alone [23]: 424 nM
- GI50, drug alone [24]: 2.17 µM

SMILES: C=CC(=O)Nc1ccc2ncnc(Nc3ccc(OCc4cccc(F)c4)c(Cl)c3)c2c1.Cc1ccc(S(=O)(=O)O)cc1 [AST-1306]
- minimum viability across doses [1]: 0.174
- minimum viability across doses [2]: 0.048
- minimum viability across doses [3]: 0.315
- minimum viability across doses [4]: 0.109
- minimum viability across doses [5]: 0.922
- minimum viability across doses [6]: 1.05
- minimum viability across doses [7]: 0.0947
- minimum viability across doses [8]: 0.188
- AUC of dose-response viability curve [9]: 2.76
- AUC of dose-response viability curve [10]: 2.61
- AUC of dose-response viability curve [11]: 2.9
- AUC of dose-response viability curve [12]: 2.33
- AUC of dose-response viability curve [13]: 3.99
- AUC of dose-response viability curve [14]: 4.13
- AUC of dose-response viability curve [15]: 2.59
- AUC of dose-response viability curve [16]: 3.03
- GI50, drug alone [17]: 3.35 µM
- GI50, drug alone [18]: 1720 nM
- GI50, drug alone [19]: 3.11 µM
- GI50, drug alone [20]: 884 nM
- GI50, drug alone [21]: > 10 µM
- GI50, drug alone [22]: > 10 µM
- GI50, drug alone [23]: 2380 nM
- GI50, drug alone [24]: 4.97 µM

Now from value to molecule, other results behind:

- GI50, drug alone [19]: 0.171 µM
- GI50, drug alone [23]: 16.9 nM
SMILES: Cc1csc(-c2nnc(Nc3ccc(Oc4ncccc4-c4ccnc(N)n4)cc3)c3ccccc23)c1 [AMG 900]
- minimum viability across doses [1]: 0.425
- minimum viability across doses [2]: 0.287
- minimum viability across doses [3]: 0.231
- minimum viability across doses [4]: 0.561
- minimum viability across doses [5]: 0.776
- minimum viability across doses [6]: 0.875
- minimum viability across doses [7]: 0.0401
- minimum viability across doses [8]: 0.479
- AUC of dose-response viability curve [9]: 2.02
- AUC of dose-response viability curve [10]: 1.64
- AUC of dose-response viability curve [11]: 1.72
- AUC of dose-response viability curve [12]: 2.41
- AUC of dose-response viability curve [13]: 4.67
- AUC of dose-response viability curve [14]: 3.73
- AUC of dose-response viability curve [15]: 0.822
- AUC of dose-response viability curve [16]: 2.49
- GI50, drug alone [17]: 0.672 µM
- GI50, drug alone [18]: 109 nM
- GI50, drug alone [20]: > 10000 nM
- GI50, drug alone [21]: > 10 µM
- GI50, drug alone [22]: > 10 µM
- GI50, drug alone [24]: 4.57 µM

- GI50, drug alone [19]: > 10 µM
- GI50, drug alone [23]: > 10000 nM
SMILES: COc1ccc2c(OCc3nnc4ccc(-c5ccccc5)nn34)ccnc2c1 [AMG-208]
- minimum viability across doses [1]: 0.678
- minimum viability across doses [2]: 0.879
- minimum viability across doses [3]: 0.888
- minimum viability across doses [4]: 0.804
- minimum viability across doses [5]: 1.15
- minimum viability across doses [6]: 1.25
- minimum viability across doses [7]: 0.869
- minimum viability across doses [8]: 0.912
- AUC of dose-response viability curve [9]: 2.66
- AUC of dose-response viability curve [10]: 3.41
- AUC of dose-response viability curve [11]: 3.47
- AUC of dose-response viability curve [12]: 3.11
- AUC of dose-response viability curve [13]: 4.38
- AUC of dose-response viability curve [14]: 4.94
- AUC of dose-response viability curve [15]: 3.53
- AUC of dose-response viability curve [16]: 3.4
- GI50, drug alone [17]: > 10 µM
- GI50, drug alone [18]: > 10000 nM
- GI50, drug alone [20]: > 10000 nM
- GI50, drug alone [21]: > 10 µM
- GI50, drug alone [22]: > 10 µM
- GI50, drug alone [24]: > 10 µM
